pIC50: −log10 of the molar value.
Target: T1, calf thymus intracellular vitamin D receptor (VDR) (Bos taurus, UniProt Q28037)
T1 construct: calf thymus intracellular vitamin D receptor (VDR); from tissue; host or cells: calf thymus
T1 sequence (Q28037 1-426): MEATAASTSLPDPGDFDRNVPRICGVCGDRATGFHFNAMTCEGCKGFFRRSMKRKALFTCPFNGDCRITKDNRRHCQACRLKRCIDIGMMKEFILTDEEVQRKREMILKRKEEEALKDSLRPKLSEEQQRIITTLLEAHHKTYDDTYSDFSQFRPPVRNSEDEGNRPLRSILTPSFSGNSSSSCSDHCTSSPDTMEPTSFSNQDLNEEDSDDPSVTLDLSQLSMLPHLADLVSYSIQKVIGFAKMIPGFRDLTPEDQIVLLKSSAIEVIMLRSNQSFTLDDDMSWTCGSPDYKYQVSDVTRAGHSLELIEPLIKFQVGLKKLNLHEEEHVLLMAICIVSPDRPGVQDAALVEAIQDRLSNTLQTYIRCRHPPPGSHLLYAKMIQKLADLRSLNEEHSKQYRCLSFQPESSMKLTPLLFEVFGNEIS
Experiment: Affinity towards the calf thymus intracellular vitamin D receptor, replacement of 3H-calcitriol
Type: binding
Excerpt: In this assay ^3 H-calcitriol (1α,25-dihydroxycholecalciferol), which is specifically bound to the VDR, is replaced by the tested compound.

pIC50 (compound dissolved in ethanol, 10^-13 to 10^-7 M, 3H-calcitriol bound to VDR, read-out: IC50 value, i.e. 50% replacement of 3H-calcitriol): 9.60 | affinity to the VDR (conclusion drawn from the IC50): high affinity to the VDR
SMILES: C=C1/C(=C\C=C2/CCC[C@]3(CO)[C@@H]([C@H](C)CCCC(C)(C)O)CC[C@@H]23)C[C@@H](O)C[C@@H]1O [compound 46]
